Laboratory results reported in ChEMBL document CHEMBL1201862, “PubChem BioAssay data set” (2004).
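All cell lines were grown in 96-well plates and treated with compound for 48 hours. At the GI50, growth is halved.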 Calls of active or inactive are those of the source. Rule as the data show it: active = GI50 up to about 1.1 µM and inactive = higher.

What was measured:
Assay in all cases: inhibition of tumour cell growth, NCI panel, 48 h
[1] = tested on: NCI-H522
[2] = tested on: SK-MEL-5
[3] = tested on: NCI-H460
[4] = tested on: SK-MEL-2
[5] = tested on: TK-10
[6] = tested on: HOP-62
[7] = tested on: OVCAR-8
[8] = tested on: OVCAR-5
[9] = tested on: SW-620
[10] = tested on: SNB-78
[11] = tested on: A498
[12] = tested on: UO-31
[13] = tested on: RPMI-8226
[14] = tested on: K562
[15] = tested on: NCI-H23
[16] = tested on: M14
[17] = tested on: SF-268
[18] = tested on: HCT-15
[19] = tested on: SK-OV-3
[20] = tested on: IGROV-1
[21] = tested on: UACC-257
[22] = tested on: NCI-H226
[23] = tested on: KM-20L2
[24] = tested on: SF-295
[25] = tested on: 786-0
[26] = tested on: SNB-19
[27] = tested on: HOP-18
[28] = tested on: A549
[29] = tested on: CCRF-CEM
[30] = tested on: HL-60
[31] = tested on: LXFL 529
[32] = tested on: HCC 2998
[33] = tested on: U-251
[34] = tested on: UACC-62
[35] = tested on: SF-539
[36] = tested on: COLO 205
[37] = tested on: EKVX
[38] = tested on: RXF 393
[39] = tested on: SK-MEL-28
[40] = tested on: HCT-116
[41] = tested on: MOLT-4
[42] = tested on: OVCAR-4
[43] = tested on: KM12
[44] = tested on: SNB-75
[45] = tested on: SN12C
[46] = tested on: HT-29
[47] = tested on: HOP-92
[48] = tested on: CAKI-1
[49] = tested on: Malme-3M
[50] = tested on: ACHN
[51] = tested on: DMS-273
[52] = tested on: OVCAR-3
[53] = tested on: LOX IMVI
[54] = tested on: DLD-1
[55] = tested on: DMS-114
[56] = tested on: M19-MEL
[57] = tested on: SR

`C=C(C=O)CCCC(C)[C@@H]1CCC23CC12CCC1[C@@]2(C)CCC(OC(C)=O)C(C)(C)C2CC(OC2OC(COC(C)=O)C(O)C(O)C2O)[C@]13C` (some centres undefined) was tested, and the GI50 [1] was 0.843 µM (active), the GI50 [2] was 5.58 µM (inactive) and the GI50 [3] was 7.69 µM (inactive). For the same compound, the GI50 [4] was 7.4 µM (inactive), the GI50 [5] was 6.58 µM (inactive) and the GI50 [6] was 7.87 µM (inactive). For the same compound, the GI50 [7] was 4.38 µM (inactive), the GI50 [8] was 5.98 µM (inactive) and the GI50 [9] was 0.798 µM (active). For the same compound, the GI50 [10] was 1.14 µM (inactive), the GI50 [11] was 6.85 µM (inactive) and the GI50 [12] was 5.42 µM (inactive). For the same compound, the GI50 [13] was 0.859 µM (active), the GI50 [14] was 1.44 µM (inactive) and the GI50 [15] was 7.82 µM (inactive). The GI50 [16] was 1.47 µM (inactive), the GI50 [17] was 5.43 µM (inactive) and the GI50 [18] was 1.56 µM. For the same compound, the GI50 [19] was 6.15 µM (inactive), the GI50 [20] was 2.15 µM (inactive) and the GI50 [21] was 5.7 µM (inactive). The GI50 [22] was 6.43 µM (inactive), the GI50 [23] was 6.5 µM (inactive) and the GI50 [24] was 5.83 µM (inactive). The GI50 [25] was 6.87 µM (inactive), the GI50 [26] was 7.1 µM (inactive) and the GI50 [27] was 9.64 µM (inactive). For the same compound, the GI50 [28] was 6.34 µM (inactive), the GI50 [29] was 1.03 µM (active) and the GI50 [30] was 0.643 µM (active). The GI50 [31] was 2.66 µM (inactive), the GI50 [32] was 7.53 µM (inactive) and the GI50 [33] was 2.72 µM (inactive). For the same compound, the GI50 [34] was 1.08 µM (active), the GI50 [35] was 5.7 µM (inactive) and the GI50 [36] was 7.82 µM (inactive). The GI50 [37] was 7.33 µM (inactive), the GI50 [38] was 5.6 µM (inactive) and the GI50 [39] was 0.845 µM (active). The GI50 [40] was 0.809 µM (active), the GI50 [41] was 0.861 µM (active) and the GI50 [42] was 5.14 µM (inactive). For the same compound, the GI50 [43] was 3.39 µM (inactive), the GI50 [44] was 5.68 µM (inactive) and the GI50 [45] was 1.58 µM (inactive). For the same compound, the GI50 [46] was 5.43 µM (inactive), the GI50 [47] was 6.22 µM (inactive) and the GI50 [48] was 5.25 µM (inactive). For the same compound, the GI50 [49] was 2 µM (inactive), the GI50 [50] was 4.51 µM (inactive) and the GI50 [51] was 5.82 µM (inactive). The GI50 [52] was 2.72 µM (inactive) and the GI50 [53] was 0.807 µM (active).

With `CCO/C([O-])=C(/C=O)[n+]1c(C)n(C)c2ccccc21` the GI50 [1] was > 100 µM (inactive), the GI50 [2] was > 100 µM (inactive) and the GI50 [3] was > 100 µM (inactive). The GI50 [4] was > 100 µM (inactive), the GI50 [54] was > 100 µM (inactive) and the GI50 [5] was > 100 µM (inactive). The GI50 [6] was > 100 µM (inactive), the GI50 [7] was > 100 µM (inactive) and the GI50 [8] was > 100 µM (inactive). For the same compound, the GI50 [9] was > 100 µM (inactive), the GI50 [10] was > 100 µM (inactive) and the GI50 [11] was > 100 µM (inactive). The GI50 [55] was > 100 µM (inactive), the GI50 [12] was > 100 µM (inactive) and the GI50 [13] was > 100 µM (inactive). The GI50 [14] was > 100 µM (inactive), the GI50 [15] was > 100 µM (inactive) and the GI50 [16] was > 100 µM (inactive). The GI50 [17] was > 100 µM (inactive), the GI50 [18] was over 100 µM and the GI50 [19] was > 100 µM (inactive). For the same compound, the GI50 [20] was > 100 µM (inactive), the GI50 [21] was > 100 µM (inactive) and the GI50 [22] was > 100 µM (inactive). The GI50 [23] was > 100 µM (inactive), the GI50 [24] was > 100 µM (inactive) and the GI50 [25] was > 100 µM (inactive). The GI50 [26] was > 100 µM (inactive), the GI50 [27] was > 100 µM (inactive) and the GI50 [28] was > 100 µM (inactive). The GI50 [29] was > 100 µM (inactive), the GI50 [30] was > 100 µM (inactive) and the GI50 [31] was > 100 µM (inactive). The GI50 [32] was > 100 µM (inactive), the GI50 [56] was > 100 µM (inactive) and the GI50 [33] was > 100 µM (inactive). For the same compound, the GI50 [34] was > 100 µM (inactive), the GI50 [35] was > 100 µM (inactive) and the GI50 [36] was > 100 µM (inactive). The GI50 [37] was > 100 µM (inactive), the GI50 [38] was > 100 µM (inactive) and the GI50 [39] was > 100 µM (inactive). The GI50 [40] was > 100 µM (inactive), the GI50 [41] was > 100 µM (inactive) and the GI50 [42] was > 100 µM (inactive). For the same compound, the GI50 [43] was > 100 µM (inactive), the GI50 [44] was > 100 µM (inactive) and the GI50 [46] was > 100 µM (inactive). For the same compound, the GI50 [48] was > 100 µM (inactive), the GI50 [49] was > 100 µM (inactive) and the GI50 [51] was > 100 µM (inactive). For the same compound, the GI50 [52] was > 100 µM (inactive) and the GI50 [53] was > 100 µM (inactive).

With `CCCCCCCCCC(=O)OCC1OC(n2cc(F)c(=O)[nH]c2=O)C(N)C(OC(=O)CCCCCCCCC)C1O` (centres undefined) the GI50 [1] was 14.6 µM (inactive), the GI50 [2] was 22.6 µM (inactive) and the GI50 [3] was 19.4 µM (inactive). For the same compound, the GI50 [4] was 15.5 µM (inactive), the GI50 [5] was 36.1 µM (inactive) and the GI50 [6] was 37.2 µM (inactive). The GI50 [7] was 18.2 µM (inactive), the GI50 [9] was 17.4 µM (inactive) and the GI50 [10] was 15.8 µM (inactive). The GI50 [11] was 15.5 µM (inactive), the GI50 [55] was 15.7 µM (inactive) and the GI50 [12] was 21.6 µM (inactive). For the same compound, the GI50 [13] was 21.5 µM (inactive), the GI50 [14] was 16.7 µM (inactive) and the GI50 [15] was 18.7 µM (inactive). For the same compound, the GI50 [16] was 19.2 µM (inactive), the GI50 [17] was 20.2 µM (inactive) and the GI50 [18] was 18.2 µM. The GI50 [19] was 60 µM (inactive), the GI50 [20] was > 100 µM (inactive) and the GI50 [21] was 20 µM (inactive). The GI50 [23] was 19 µM (inactive), the GI50 [24] was 17.8 µM (inactive) and the GI50 [25] was 18.4 µM (inactive). For the same compound, the GI50 [26] was 17.4 µM (inactive), the GI50 [28] was 18 µM (inactive) and the GI50 [29] was 18.5 µM (inactive). For the same compound, the GI50 [30] was 23.3 µM (inactive), the GI50 [31] was 16.6 µM (inactive) and the GI50 [32] was 15.5 µM (inactive). For the same compound, the GI50 [56] was 17.4 µM (inactive), the GI50 [33] was 17.1 µM (inactive) and the GI50 [34] was 17.9 µM (inactive). The GI50 [35] was 18.4 µM (inactive), the GI50 [36] was 17.5 µM (inactive) and the GI50 [37] was 18.2 µM (inactive). The GI50 [38] was 15.9 µM (inactive), the GI50 [39] was 16.7 µM (inactive) and the GI50 [40] was 18.2 µM (inactive). For the same compound, the GI50 [41] was 14.1 µM (inactive), the GI50 [42] was 15.8 µM (inactive) and the GI50 [43] was 19.1 µM (inactive). For the same compound, the GI50 [57] was 19.7 µM (inactive), the GI50 [44] was 16.3 µM (inactive) and the GI50 [45] was 16.9 µM (inactive). The GI50 [46] was 17.5 µM (inactive), the GI50 [47] was 20.6 µM (inactive) and the GI50 [48] was 38.2 µM (inactive). For the same compound, the GI50 [49] was 16.9 µM (inactive), the GI50 [50] was 40.2 µM (inactive) and the GI50 [51] was 20.4 µM (inactive). For the same compound, the GI50 [52] was 18.6 µM (inactive) and the GI50 [53] was 16.5 µM (inactive).
